Experiment [1] deals with IRF pathway, THP1-Dual™ cells. In words: STING reporter assay in THP1-Dual cells, IRF pathway (Lucia luciferase, QUANTI-Luc). Type of experiment: cell-based, human. The settings on record: Homo sapiens, THP1-Dual, 20 h, THP1-Dual cells, 10% human plasma, 20 hours; Lucia luciferase; 100% activation = 100 μM cGAMP; read-out: IRF (EC50 μM). Put shortly:
(§1)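 THP-1-derived dual-reporter cells treated with serially diluted compounds (final top concentration 100 μM) for 20 h at 37° C. NF-κB read as SEAP via QUANTI-Blue at OD620; IRF read as Lucia luminescence via QUANTI-Luc after 5 min. 100% activation set by 100 μM cGAMP, baseline by DMSO.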

The subject of experiment [2] is NF-κB pathway, THP1-Dual™ cells. In words: STING reporter assay in THP1-Dual cells, NF-κB pathway (SEAP, QUANTI-Blue). It counts as cell-based, human. The settings on record: Homo sapiens, THP1-Dual, 20 h, THP1-Dual cells, 10% human plasma, 20 hours; SEAP; 100% activation = 100 μM cGAMP; read-out: NFkB (EC50 μM). Summed up:
as §1

Among the data in patent US12673954B2 (BRISTOL-MYERS SQUIBB COMPANY, priority 2021, dated 2026) are EC50 values, retold here.

Turning to `COC(=O)c1cc(C#N)cc2cc(CNC(=O)c3cnn4cccnc34)oc12` [EXAMPLE 105, Methyl 5-cyano-2-((pyrazolo[1,5-a]pyrimidine-3-carboxamido)methyl)benzofuran-7-carboxylate], the figures for the EC50 in experiment [1] and in experiment [2] were 4.7 µM and 3.4 µM, respectively.

For `COC(=O)c1cc(C(F)(F)F)cc2cc(CNC(=O)c3cnn4cccnc34)oc12` [EXAMPLE 106, Methyl 2-((pyrazolo[1,5-a]pyrimidine-3-carboxamido)methyl)-5-(trifluoromethyl) benzofuran-7-carboxylate], the EC50 (as a rule, the midpoint of the concentration-response curve) is 0.75 µM in experiment [1] and 1.1 µM in experiment [2].

Turning to `COC(=O)c1c(F)ccc2cc(CNC(=O)c3cnn4cccnc34)oc12` [EXAMPLE 107, Methyl 6-fluoro-2-((pyrazolo[1,5-a]pyrimidine-3-carboxamido)methyl)benzofuran-7-carboxylate], the concentration giving a half-maximal response (EC50) in experiment [1] amounted to 1.4 µM; in experiment [2] it was 2 µM.

As to `COC(=O)c1c(C)ccc2cc(CNC(=O)c3cnn4cccnc34)oc12` [EXAMPLE 108, Methyl 6-methyl-2-((pyrazolo[1,5-a]pyrimidine-3-carboxamido)methyl)benzofuran-7-carboxylate], the EC50 in experiment [1] was 21 µM; in experiment [2], 31 µM.

`COC(=O)c1c(O)ccc2cc(CNC(=O)c3cnn4cccnc34)oc12` [EXAMPLE 109, Methyl 6-hydroxy-2-((pyrazolo[1,5-a]pyrimidine-3-carboxamido)methyl)benzofuran-7-carboxylate]: the EC50 in experiment [1] worked out at 0.9 µM; in experiment [2], 1.1 µM.

On to `COC(=O)c1cc(F)cc2c(Cl)c(CNC(=O)c3cnn4cccnc34)oc12` [EXAMPLE 110, Methyl 3-chloro-5-fluoro-2-((pyrazolo[1,5-a]pyrimidine-3-carboxamido)methyl)benzofuran-7-carboxylate], for which the EC50 in experiment [1] came to 0.22 µM; in experiment [2], 0.27 µM.

Turning to `COC(=O)c1cc(F)cc2c(Cl)c([C@H](C)NC(=O)c3cnn4cccnc34)oc12` [EXAMPLE 111, Methyl (S)-3-chloro-5-fluoro-2-(1-(pyrazolo[1,5-a]pyrimidine-3-carboxamido)ethyl)benzofuran-7-carboxylate], the EC50 in experiment [1] is 1.2 µM; in experiment [2] it was 1.4 µM.

For `COC(=O)c1cc(Cl)cc2c(Cl)c(CNC(=O)c3cnn4cccnc34)oc12` [EXAMPLE 112, Methyl 3,5-dichloro-2-((pyrazolo[1,5-a]pyrimidine-3-carboxamido)methyl)benzofuran-7-carboxylate], the EC50 in experiment [1] worked out at 0.2 µM; in experiment [2] it was 0.26 µM.

Consider `COC(=O)c1cc(Cl)cc2c(Cl)c(CNC(=O)c3cncc4cccnc34)oc12` [EXAMPLE 113, methyl 2-((1,6-naphthyridine-8-carboxamido)methyl)-3,5-dichlorobenzofuran-7-carboxylate], for which the EC50 is 0.32 µM in experiment [1] and 0.51 µM in experiment [2].

`COC(=O)c1cc(Cl)cc2c(Cl)c([C@H](C)NC(=O)c3cnn4cccnc34)oc12` [EXAMPLE 114, Methyl (S)-3,5-dichloro-2-(1-(pyrazolo[1,5-a]pyrimidine-3-carboxamido)ethyl)benzofuran-7-carboxylate]: the EC50 was determined as 0.97 µM in experiment [1] and 0.89 µM in experiment [2].

In the case of `COC(=O)c1cc(Cl)cc2c(C)c(CNC(=O)c3cnn4cccnc34)oc12` [EXAMPLE 115, Methyl 5-chloro-3-methyl-2-((pyrazolo[1,5-a]pyrimidine-3-carboxamido)methyl)benzofuran-7-carboxylate], the results for the EC50 in experiment [1] and in experiment [2] were 0.6 µM and 0.82 µM, respectively.

`COC(=O)c1cc(Cl)cc2c(C(F)(F)F)c(CNC(=O)c3cnn4cccnc34)oc12` [EXAMPLE 116, Methyl 5-chloro-2-((pyrazolo[1,5-a]pyrimidine-3-carboxamido)methyl)-3-(trifluoromethyl)benzofuran-7-carboxylate]: the EC50 in experiment [1] is 2.9 µM; in experiment [2], 3.1 µM.
